As usually defined, the AUC(0-t) is the area under the concentration-time curve up to a stated or last time point. In general, solubility refers to how much of the substance goes into solution per volume. One may read the EC50 as the concentration needed to bring the measured effect to its halfway point. The term MRT inf denotes a mean duration of stay, worked out from the concentration-time curve. One may read the Cmax as the peak of the concentration-time curve. What is called Kd is the equilibrium constant for the complex coming apart. In general, MRT last refers to the average time that molecules of a dose stay in the body. As a reminder, the AUC(0-inf) is the area under the concentration-time curve extrapolated to infinity. Read a high AUC(0-inf) as high exposure. A word on the Tmax: it is the time at which the peak concentration occurs. By half-life is commonly meant the time in which the quantity being followed falls by half. Lower therefore signals fast loss. As usually defined, the bioavailability is the share of a dose that reaches the circulation, judged against a reference dose that is usually intravenous. A high value points to good availability. One may read the CC50 as the concentration at which the toxic effect on the cells reaches its halfway point. One may read the AUC as the area under the concentration-time curve, a measure of exposure. A high value points to more exposure.

A short description of data set [1]: AUC (0 to 24 hrs) in Sprague-Dawley rat at 5 mg/kg, iv measured upto 24 hrs by LC-MS analysis. The conditions noted are these: in vivo. The data set is classed as ADME, organism-based. Also on record: time < 24 hrs, dose 5 mg/kg, route iv.
A short description of data set [2]: Aqueous solubility of the compound in PBS at pH 7.4 after 24 hrs by HPLC-UV analysis. The data set is classed as physicochemical.
A short description of data set [3]: Antiinflammatory activity against LPS-induced mouse peritoneal macrophage assessed as suppression of NO level pretreated with LPS followed by compound addition and measured after 24 hrs by Griess reagent based assay. The data set is classed as functional, cell-based.
A short description of data set [4]: MRT (0 to infinity) in Sprague-Dawley rat at 20 mg/kg, IG measured upto 24 hrs by LC-MS analysis. It is filed as ADME, organism-based. The following applies: in vivo, po.
Data set [5] can be described thus: Cmax in Sprague-Dawley rat at 20 mg/kg, IG measured upto 24 hrs by LC-MS analysis. It is filed as ADME, organism-based. Also on record: dose 20 mg/kg, time < 24 hrs, route ig. The following applies: in vivo, po.
A further data set deals with Keap1/Nrf2 (Homo sapiens, UniProt Q14145). The data set can be described thus: Inhibition of recombinant N-terminal His6-tagged human Keap1-Nrf2 (322 to 609 residues) (unknown origin) protein-protein interaction expressed in Escherichia coli (DE3) incubated for 60 mins by fluorescence anisotropy assay.
Keap1/Nrf2, sequence (Q16236 whole entry, the tested form may be a part): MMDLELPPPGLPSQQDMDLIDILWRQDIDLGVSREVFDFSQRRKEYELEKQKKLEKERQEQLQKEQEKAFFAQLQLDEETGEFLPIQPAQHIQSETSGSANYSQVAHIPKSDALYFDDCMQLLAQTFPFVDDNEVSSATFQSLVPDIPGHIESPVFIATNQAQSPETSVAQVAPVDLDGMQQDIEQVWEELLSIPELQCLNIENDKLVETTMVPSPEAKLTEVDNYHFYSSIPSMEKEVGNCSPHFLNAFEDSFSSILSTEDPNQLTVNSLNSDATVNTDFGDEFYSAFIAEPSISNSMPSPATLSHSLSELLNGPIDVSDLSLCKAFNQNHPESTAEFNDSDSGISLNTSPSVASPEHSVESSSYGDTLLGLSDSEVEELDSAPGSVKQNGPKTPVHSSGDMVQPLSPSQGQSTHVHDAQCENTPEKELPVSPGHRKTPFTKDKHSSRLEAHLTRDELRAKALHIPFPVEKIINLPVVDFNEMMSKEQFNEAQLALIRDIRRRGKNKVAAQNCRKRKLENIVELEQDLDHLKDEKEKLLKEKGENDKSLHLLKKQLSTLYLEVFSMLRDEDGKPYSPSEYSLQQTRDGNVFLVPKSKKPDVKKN
Keap1/Nrf2, sequence (Q14145 whole entry, the tested form may be a part): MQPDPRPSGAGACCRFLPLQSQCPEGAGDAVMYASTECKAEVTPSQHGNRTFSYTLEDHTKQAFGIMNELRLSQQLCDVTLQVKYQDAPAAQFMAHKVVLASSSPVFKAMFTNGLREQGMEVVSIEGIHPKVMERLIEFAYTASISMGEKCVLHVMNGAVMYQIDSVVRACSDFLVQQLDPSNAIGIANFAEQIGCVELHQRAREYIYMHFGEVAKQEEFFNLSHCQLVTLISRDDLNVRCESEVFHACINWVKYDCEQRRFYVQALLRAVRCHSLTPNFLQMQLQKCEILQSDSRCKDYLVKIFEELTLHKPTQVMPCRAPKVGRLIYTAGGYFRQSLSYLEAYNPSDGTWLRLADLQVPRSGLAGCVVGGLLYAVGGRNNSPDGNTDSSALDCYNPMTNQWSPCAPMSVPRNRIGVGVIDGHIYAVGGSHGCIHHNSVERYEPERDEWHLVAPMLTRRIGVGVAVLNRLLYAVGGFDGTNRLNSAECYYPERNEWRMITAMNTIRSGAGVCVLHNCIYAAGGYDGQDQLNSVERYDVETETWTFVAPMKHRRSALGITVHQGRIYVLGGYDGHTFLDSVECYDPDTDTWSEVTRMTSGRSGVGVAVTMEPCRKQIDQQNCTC
Data set [6] in a line: MRT(0 to 24 hrs) in Sprague-Dawley rat at 20 mg/kg, IG measured upto 24 hrs by LC-MS analysis. The data set is classed as ADME, organism-based. The conditions noted are these: in vivo, po.
A short description of data set [7]: AUC(0 to infinity) in Sprague-Dawley rat at 20 mg/kg, IG measured upto 24 hrs by LC-MS analysis. The conditions noted are these: in vivo, po. The arrangement: dose 20 mg/kg, time < 24 hrs, route ig. The data set is classed as ADME, organism-based.
Data set [8] can be described thus: Tmax in Sprague-Dawley rat at 5 mg/kg, iv measured upto 24 hrs by LC-MS analysis. The conditions noted are these: in vivo. It is filed as ADME, organism-based.
Data set [9] is described as follows: Half life in Sprague-Dawley rat at 20 mg/kg, IG measured upto 24 hrs by LC-MS analysis. The data set is classed as ADME, organism-based. The conditions noted are these: in vivo, po.
A short description of data set [10]: Oral bioavailability in Sprague-Dawley rat at 20 mg/kg measured upto 24 hrs by LC-MS analysis. The following applies: in vivo. The data set is classed as ADME, organism-based.
Data set [11] can be described thus: Antiinflammatory activity against LPS-induced mouse peritoneal macrophage assessed as inhibition of TNF alpha level after 4 hrs by ELISA method. The data set is classed as functional, cell-based.
Data set [12] can be described thus: AUC (0 to 24 hrs) in Sprague-Dawley rat at 20 mg/kg, IG measured upto 24 hrs by LC-MS analysis. The arrangement: time < 24 hrs, dose 20 mg/kg, route ig. The following applies: in vivo, po. The data set is classed as ADME, organism-based.
The nature of data set [13]: Aqueous solubility of the compound in PBS at pH 7 after 24 hrs by HPLC-UV analysis. The data set is classed as physicochemical.
Data set [14] is described as follows: Aqueous solubility of the compound in PBS at pH 2 after 24 hrs by HPLC-UV analysis. It is filed as physicochemical.
The nature of data set [15]: MRT(0 to 24 hrs) in Sprague-Dawley rat at 5 mg/kg, iv measured upto 24 hrs by LC-MS analysis. The conditions noted are these: in vivo. The data set is classed as ADME, organism-based.
A short description of data set [16]: MRT(0 to infinity) in Sprague-Dawley rat at 5 mg/kg, iv measured upto 24 hrs by LC-MS analysis. It is filed as ADME, organism-based. The conditions noted are these: in vivo.
For data set [17], the system named is Peritoneal macrophage. Nature of the data set: Cytotoxicity against mouse peritoneal macrophages assessed as reduction in cell viability measured after 24 hrs by Cell Titer-Blue assay. It is filed as functional. In general terms: The colour change of resazurin is a common sign of viable cells or microbes.
The nature of data set [18]: AUC(0 to infinity) in Sprague-Dawley rat at 5 mg/kg, iv measured upto 24 hrs by LC-MS analysis. Also on record: dose 5 mg/kg, time < 24 hrs, route iv. The data set is classed as ADME, organism-based. The following applies: in vivo.
The nature of data set [19]: Half life in Sprague-Dawley rat at 5 mg/kg, iv measured upto 24 hrs by LC-MS analysis. It is filed as ADME, organism-based. The following applies: in vivo.
Data set [20] can be described thus: Tmax in Sprague-Dawley rat at 20 mg/kg, IG measured for 24 hrs by LC-MS analysis. The following applies: in vivo, po. The data set is classed as ADME, organism-based.
Data set [21] in a line: Cmax in Sprague-Dawley rat at 5 mg/kg, iv measured upto 24 hrs by LC-MS analysis. It is filed as ADME, organism-based. Also on record: dose 5 mg/kg, time < 24 hrs, route iv. The following applies: in vivo.
In data set [22] the test system is Peritoneal macrophage. Nature of the data set: Antiinflammatory activity against LPS-induced mouse peritoneal macrophage assessed as inhibition of TNF alpha level at 10 uM after 4 hrs by ELISA method. The data set is classed as functional, cell-based. On the technique in general: ELISA stands for enzyme-linked immunosorbent assay.
The test system of data set [23] is Mus musculus. Nature of the data set: In vivo inhibition of Keap1-Nrf2 interaction in LPS-induced acute lung injury C57BL/6J mouse model assessed as increase in Nrf2 nuclear translocation in lungs by measuring decrease in cytosolic Nrf2 level treated intraperitoneally at 0.5 hrs before LPS stimulation by Western blot analysis. The following applies: dose 5-20 mg/kg, route ip, DDE = dose-dependent effect. It is filed as functional, organism-based. Background: Immunoblotting shows a protein as a band on a membrane.

The test system of data set [24] is Mus musculus. Nature of the data set: Antiinflammatory activity against ip dosed LPS-induced ALI C57BL/6J mouse model assessed as reduction in IL-6 level in BALF administered 0.5 hr prior to LPS stimulation by ELISA method. The data set is classed as functional, organism-based. The following applies: dose 5-20 mg/kg, DDE = dose-dependent effect.
The subject of data set [25] is Mus musculus. Nature of the data set: Antiinflammatory activity against ip dosed LPS-induced ALI C57BL/6J mouse model assessed as reduction in […] level in BALF administered 0.5 hr prior to LPS stimulation by ELISA method. The data set is classed as functional, organism-based. The following applies: dose 5-20 mg/kg, DDE = dose-dependent effect.
Data set [26] concerns Mus musculus. The data set can be described thus: In vivo inhibition of Keap1-Nrf2 interaction in LPS-induced acute lung injury C57BL/6J mouse model assessed as increase in Nrf2 nuclear translocation in lungs by measuring increase in nuclear Nrf2 level treated intraperitoneally at 0.5 hrs before LPS stimulation by Western blot analysis. The following applies: dose 5-20 mg/kg, route ip, DDE = dose-dependent effect. The data set is classed as functional, organism-based.

In data set [27] the test system is Mus musculus. The data set can be described thus: Antiinflammatory activity against ip dosed LPS-induced ALI C57BL/6J mouse model assessed as reduction in IL-6 mRNA expression in BALF administered 0.5 hr prior to LPS stimulation by RT-qPCR method. The data set is classed as functional, organism-based. The following applies: dose 5-20 mg/kg, DDE = dose-dependent effect.

Data set [28] has as its system Mus musculus. The data set can be described thus: Antiinflammatory activity against ip dosed LPS-induced ALI C57BL/6J mouse model assessed as reduction in TNF-alpha level in BALF administered 0.5 hr prior to LPS stimulation by ELISA method. The conditions noted are these: dose 5-20 mg/kg, DDE = dose-dependent effect. It is filed as functional, organism-based.
In data set [29] the test system is Mus musculus. Nature of the data set: Antiinflammatory activity against ip dosed LPS-induced ALI C57BL/6J mouse model assessed as reduction in TNF-alpha mRNA expression in BALF administered 0.5 hr prior to LPS stimulation by RT-qPCR method. The conditions noted are these: dose 5-20 mg/kg, DDE = dose-dependent effect. It is filed as functional, organism-based.

Data set [30] has as its system Peritoneal macrophage. Nature of the data set: Antiinflammatory activity against LPS-induced mouse peritoneal macrophage assessed as suppression of NO level at 10 uM pretreated with LPS followed by compound addition and measured after 24 hrs by Griess reagent based assay. The data set is classed as functional, cell-based.
Data set [31] relates to Peritoneal macrophage. The data set can be described thus: Antiinflammatory activity against LPS-induced mouse peritoneal macrophage assessed as suppression of ROS level at 10 uM pretreated with LPS followed by compound addition and measured after 6 hrs by DCFH-DA staining based fluorescence analysis. The data set is classed as functional, cell-based.
In data set [32] the test system is Mus musculus. Nature of the data set: Antiinflammatory activity against ip dosed LPS-induced ALI C57BL/6J mouse model assessed as reduction in IL-1beta mRNA expression in BALF administered 0.5 hr prior to LPS stimulation by RT-qPCR method. The conditions noted are these: dose 5-20 mg/kg, DDE = dose-dependent effect. The data set is classed as functional, organism-based.

In brackets after ≈: the same amount, converted by molar mass. Activity calls are given as the source filed them. No cut-off for these calls is given here. Some results are limits rather than exact numbers.

Regarding `CCN1CCN(CCC(=O)Nc2ccc(S(=O)(=O)N(CC(N)=O)c3ccc(N(CC(N)=O)S(=O)(=O)c4ccc(OC)cc4)c4ccccc34)cc2)CC1` [listing 1 of 2 here], the results for the AUC(0-t) at 24 h in [1] and in data set [12] were 4560 ng·h/mL and 3060 ng·h/mL, respectively. Also, the figures for the solubility at 24 h in data set [2], in [13] and in data set [14] were 49.3 µg/mL (≈ 64.4 µM), 91.1 µg/mL (≈ 119 µM) and 902 µg/mL (≈ 1180 µM), respectively. For the same compound, the values for the EC50 in data set [3] and in data set [11] were 970 nM and 1140 nM, respectively. Besides, the figures for the MRT inf in [4] and in data set [16] were 14 h and 5.94 h, respectively. The Cmax was 708 ng/mL in [5] and 2630 ng/mL in data set [21]. In addition, at Keap1/Nrf2, the Kd was 210 nM. For the same compound, the MRT last at 24 h stood at 6.71 h in data set [6] and 4.64 h in [15]. In data set [7], this compound registered an AUC(0-inf) of 3700 ng·h/mL. Also, the Tmax in data set [8] came to 0.72 h; in data set [20], 1.38 h. The same compound had a half-life in [9] of 10.9 h. For the same compound, the bioavailability in data set [10] was determined as 19.9%. For the same compound, the CC50 in the data set on Peritoneal macrophage [17] is > 100000 nM. The compound further had an AUC in data set [18] of 4779.24 ng·h/mL. Also, the t1/2 in [19] was found to be 4.31 h.

In the case of `CCN1CCN(CCC(=O)Nc2ccc(S(=O)(=O)N(CC(N)=O)c3ccc(N(CC(N)=O)S(=O)(=O)c4ccc(OC)cc4)c4ccccc34)cc2)CC1` [listing 2 of 2 here], the outcome in the data set on Peritoneal macrophage [22], with Peritoneal macrophage [30] and with Peritoneal macrophage [31] was Active. The Activity result in the data set with Mus musculus [23], in the data set on Mus musculus [24], with Mus musculus [25], in the data set on Mus musculus [26], with Mus musculus [27] and in the data set with Mus musculus [28] was “Dde” in each case. For the same compound, the Activity entry in the data set with Mus musculus [29] and with Mus musculus [32] was “Dde” throughout.

These data come from ChEMBL document CHEMBL5154943, “Crystallography-Guided Optimizations of the Keap1-Nrf2 Inhibitors on the Solvent Exposed Region: From Symmetric to Asymmetric Naphthalenesulfonamides” (J Med Chem, 2022).
